Reference: patent US9610268B2, “Trans-aconitic acid compounds and uses thereof for inhibiting phosphodiesterase 7” (Academia Sinica, priority 2013, dated 2017)

Key:
PDE7A1 = molecular target: T1, PDE7A1 (Homo sapiens, UniProt Q13946); experiment: PDE7 activity and inhibition assay (HPLC detection of cAMP and AMP); assay type: biochemical; conditions: inhibitor final concentration 0.1 μg/μl; substrate cAMP; 90 minutes
T1 construct: purchased CALBIOCHEM 524751
Method: The activity of PDE7A1 was determined in an enzymatic assay as described below, using: • Enzyme: 0.005 U/μl PDE7A1 (Cat.#: 524751, CALBIOCHEM) • Substrate: 0.0008 μg/μl cAMP (Lot.#: BCBF5219V, SIGMA-ALDRICH) • Buffer: 10 mM Tris-HCl, pH 7.5 • Inhibitor as mentioned above: 0.3 μg/μl as a result final concentration 0.1 μg/μl
An example of the enzymatic assay for determining the activity of PDE7A1 is illustrated in FIG. 2. Briefly, substrate (10 μl), PDE7A1 (10 μl), and buffer (10 μl; as a control) were placed in an eppendorf tube in a total volume of 30 μl and immediately (at 0 minute) injected into HPLC (L-7420, HITACHI) and the contents of cAMP and AMP in the reaction mixture were detected at 254 nm under the following conditions:
Solvent: 0.2M NaH2PO4, 25 mM TBA-HS, 15% ACN, pH6
The peak areas of the cAMP and AMP were measured.
90 minutes later, the control mixture was injected again into the HPLC apparatus and the peak areas of cAMP and AMP were measured as described above and compared with that of the initial injection.
Reaction mixtures containing each of the four inhibitors (10 μl) in the same total volume were injected into the HPLC apparatus following the same procedure as described above and the peak areas of cAMP and AMP were measured and compared with that of the control sample. The percentages of inhibition were calculated.

PDE1 = PDE1 activity and inhibition assay (bis-p-nitrophenyl phosphate, OD 405 nm); assay type: biochemical; conditions: inhibitor final concentration 0.125 μg/μl; substrate bis-p-nitrophenyl phosphate
Method: The activity of PDE1 was determined in an enzymatic assay as described below, using: • Enzyme: 10 μg/μl PDE1 (Lot.#: SLBD8711V, SIGMA-ALDRICH) • Substrate: 0.001 M Bis-p-nitrophenyl phosphate (Lot.#: 021M5003V, SIGMA-5 ALDRICH) • Buffer: 0.1M Tris-HCl, pH 8.9 • Inhibitor (trans-aconitic acid (TAA), Calycosin, Kaempferol 3-O-rutinoside, and Wogonin): 1 μg/μl (final concentration 0.125 μg/μl)
An example of the enzymatic assay is illustrated in FIG. 1. Briefly, substrate (50 μl) and buffer (200 μl) were placed in a plastic disposable cuvette (Cat.#: BL6224, Basic Life). PDE1 (100 μl) and each of the four inhibitors (50 μl) or the buffer (50 μl) as a control were then added into the cuvette. The total volume of the reaction mixture is 400 μl. After incubating the enzymatic reaction mixture for a suitable period of time, the optical density was detected by a spectrophotometer at a wave length of 405 nm (U-3300, HITACHI). The optical densities of the reaction mixtures containing the inhibitors were compared with that of the control mixture and the percentages of inhibition were calculated.

T1 sequence (Q13946 whole entry): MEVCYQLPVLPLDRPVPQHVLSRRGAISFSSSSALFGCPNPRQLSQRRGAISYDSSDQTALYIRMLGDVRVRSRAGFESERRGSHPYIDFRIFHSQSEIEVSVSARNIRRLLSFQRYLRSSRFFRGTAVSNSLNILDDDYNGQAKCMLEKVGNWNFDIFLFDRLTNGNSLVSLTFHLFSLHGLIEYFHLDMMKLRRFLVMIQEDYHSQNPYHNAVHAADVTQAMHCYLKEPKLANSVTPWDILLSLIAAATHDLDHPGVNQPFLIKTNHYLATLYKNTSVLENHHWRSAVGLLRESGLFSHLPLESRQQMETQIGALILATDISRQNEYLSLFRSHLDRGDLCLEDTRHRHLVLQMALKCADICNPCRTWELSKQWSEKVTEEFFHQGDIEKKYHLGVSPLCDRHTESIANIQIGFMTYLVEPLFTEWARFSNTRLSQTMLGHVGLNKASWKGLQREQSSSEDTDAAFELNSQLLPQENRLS

For `O=C(O)/C=C(\CC(=O)O)C(=O)O` [TAA, trans-aconitic acid], the “inhibitory activity against PDE7A1 (percentage of inhibition, FIG. 3)” value (PDE7A1) was “specifically inhibits PDE7A1” and the “inhibitory activity against PDE1 (percentage of inhibition, FIG. 3)” value (PDE1) was “not PDE1”.
